According to PubChem BioAssay AID2065 (Southern Research Specialized Biocontainment Screening …, 2009):
Active and inactive are the calls of the source. How the calls were made is not given here.

Test system: West Nile virus-infected cells, virus titer reduction
Assay: WNV titer decrease in infected cells – cell-based, synthesized compounds (AID 2065)
Details: at 20 µM (top of the series)

SMILES | log titer change, negative = inhibition
CCOC(=O)C1(Cc2ccccc2C(F)(F)F)CCN(C2CCN(C(C)C)CC2)CC1 | 1.18 (inactive)
O=C(CSc1nc2ccccc2c(=O)n1-c1ccc(F)cc1F)Nc1ccc(N2CCOCC2)cc1 | -4.15
COc1ccc(-c2csc(N(CCCN(C)C)C(=O)c3ccccc3Cl)n2)cc1 | -3.82
OC1c2cc(Br)ccc2N=C2CCCN21 (stereo not given) | -5.53
COc1ccc(-c2csc(N(CCCN(C)C)C(=O)c3ccccc3C)n2)cc1 | -0.48 (inactive)
CN(C)CCCN1c2ccc([N+](=O)[O-])cc2CCc2cc([N+](=O)[O-])ccc21 | -3.82
O=C(CSc1nc2ccccc2c(=O)n1-c1ccc(F)cc1F)Nc1ccc2c(c1)CCC2 | -3.82
O=C(CSc1nc2ccccc2c(=O)n1-c1ccc(F)cc1)Nc1ccc2c(c1)CCC2 | -4.18
CN(C)CCCNC(=S)N1CCN(c2nc(-c3ccccc3)cs2)CC1 | -2.32
CCN(CC)CCCNC(=S)N1CCN(c2nc(-c3ccccc3)cs2)CC1 | -5.48
